Data as given in patent US20230103552A1, “SYSTEMS AND PHARMACEUTICAL COMPOSITIONS FOR TREATMENT BY DIRECT INJECTION OF A TARGETED POPULATION OF CELLS” (Privo Technologies, Inc., priority 2020, published 2023).

Assays:
[1] = test system: mice grafted with cancer cells; experiment: In-vivo mice study, tumor volume vs time
Excerpt: FIG. 6 provides a graph of change in Mice tumor volume vs time involving different treatments. The black curve corresponds to a control untreated tumor, the gray curve corresponds to intratumoreal injection with placebo particles containing no drug, the green curve corresponds to intravenous injection with drug, the red curve corresponds to intratumoreal injection of free drug, and the blue curve corresponds to injection with drug-encapsulated hydrogel PRV311.
Here, the PRV311 composition included microparticles loaded with the anti-tumor cytokine IL-12. […] It is hypothesized that the injected PRV311's polymeric mesh causes microparticles containing PRV311 to be retained locally, increasing efficacy.

[2] = test system: established colorectal (MC32a) and pancreatic (Panc02) tumors; details: weekly i.t. injections; cited from earlier work
[3] = mouse, in vivo; cited from earlier work

Substance: IL-12: potent antitumor cytokine
- tumor growth ([1]; intratumoral injection): merely delayed tumor growth
- tumor growth ([1]; intravenous injection): no significant change in tumor growth rate
- established tumors eradicated [2]: ≤ 10%
- local IL-12 retention [3]: 1 to 2 days
